Results published in PubChem BioAssay (NCI).
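Exposure lasted 48 hours, with cells grown in 96-well plates and compounds tested at five concentrations. The concentration for 50% growth inhibition is given as GI50. Definition used: TGI = concentration required for complete inhibition of growth.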

Experiments:
Experiment in all cases: NCI anticancer screen, dose series, 48 h
DU-145 prostate = system: DU-145 prostate
T-47D breast = system: T-47D breast
HS 578T breast = system: HS 578T breast
BT-549 breast = system: BT-549 breast
PC-3 prostate = system: PC-3 prostate
MCF7 breast = system: MCF7 breast
MDA-MB-435 = system: MDA-MB-435
NCI/ADR-RES ovarian = system: NCI/ADR-RES ovarian

Row | SMILES | GI50 (DU-145 prostate) | TGI (DU-145 prostate) | GI50 (T-47D breast) | TGI (T-47D breast) | GI50 (HS 578T breast) | TGI (HS 578T breast) | GI50 (BT-549 breast) | TGI (BT-549 breast) | GI50 (PC-3 prostate) | TGI (PC-3 prostate) | GI50 (MCF7 breast) | TGI (MCF7 breast) | GI50 (MDA-MB-435) | TGI (MDA-MB-435) | GI50 (NCI/ADR-RES ovarian) | TGI (NCI/ADR-RES ovarian)
1 | C=CCSc1n[nH]c(-c2cccs2)n1 | > 100 µM | > 100 µM | > 100 µM | > 100 µM | > 100 µM | > 100 µM | > 100 µM | > 100 µM | > 100 µM | > 100 µM | > 100 µM | > 100 µM | > 100 µM | > 100 µM | > 100 µM | > 100 µM
2 | O=C=Nc1ccc(Cc2ccc(N=C=O)cc2)cc1 (tested in a mixture with another compound) | > 25 µg/mL | > 25 µg/mL | > 25 µg/mL | > 25 µg/mL | > 25 µg/mL | > 25 µg/mL | > 25 µg/mL | > 25 µg/mL | > 25 µg/mL | > 25 µg/mL | > 25 µg/mL | > 25 µg/mL | > 25 µg/mL | > 25 µg/mL | > 25 µg/mL | > 25 µg/mL
3 | C=CC1=C(C)C2=NC1=CC1=NC(=C(CC)/C1=C/O)C=C1C=C3C(=O)C(C(=O)OC)C(=C4NC(=C2)C(C)C4CCC(=O)OC/C=C(\C)CCCC(C)CCCC(C)CCCC(C)C)C3=N1 (stereo not given) (tested in a mixture with another compound) |  | > 100 µM |  | > 100 µM |  | > 100 µM |  | > 100 µM |  | > 100 µM |  | > 100 µM |  | > 100 µM |  | > 100 µM
4 | c1ccc(-c2cc(-c3cc(-c4ccccn4)[nH]n3)n[nH]2)nc1 |  | > 100 µM |  | > 100 µM |  | > 100 µM |  | > 100 µM |  | > 100 µM |  | > 100 µM |  | > 100 µM |  | > 100 µM
5 | COc1ccc2[nH]cc(/C=C3\C(=O)Nc4ccccc43)c2c1 | 5.2 µM | 22.3 µM | 4.91 µM | 30.3 µM | 3.79 µM | 19.9 µM | 2.9 µM | 21.4 µM | 5.89 µM | 25.8 µM | 2.45 µM | 10.5 µM | 2.39 µM | 5.97 µM | 4.97 µM | 37 µM
6 | CN(C)CCCC1(c2ccc(F)cc2)OCc2cc(-c3ccc4cc[nH]c4c3)ccc21 (stereo not given) | 1.9 µM | 3.46 µM | 2.01 µM | 5.17 µM | 1.8 µM | 4.27 µM | 2.35 µM | 7.62 µM | 2.17 µM | 5.36 µM | 1.65 µM | 3.24 µM | 1.73 µM | 3.23 µM | 2.21 µM | 5.31 µM
7 | C[C@]12CC[C@@H]3c4ccc(O)cc4CC[C@H]3[C@@H]1CC[C@@H]2NS(=O)(=O)c1cccc(Br)c1 | 5.22 µM | 17 µM | 5.05 µM | 17.6 µM | 4.04 µM | 24.8 µM | 3.05 µM | 10.3 µM | 2.83 µM | 12.2 µM | 3.74 µM | 10.9 µM | 2.69 µM | 9.21 µM | 3.14 µM | 13.6 µM
8 | O=C(c1cccs1)c1c(C(F)(F)F)n([O-])c2cc(F)c(F)cc2[n+]1=O | 1.9 µM | 4.86 µM | 2.25 µM | 5.96 µM | 1.21 µM | 12.1 µM | 1.91 µM | 3.24 µM | 2.62 µM | 4.82 µM | 1.31 µM | 15.4 µM | 2.62 µM | 5.28 µM | 2.1 µM | 4.77 µM
9 | O=C1c2cccc3c(N4CCN(c5ccc6c7c(cccc57)C(=O)N(CCN5CCNCC5)C6=O)CC4)ccc(c23)C(=O)N1CCN1CCNCC1 | 14.1 µM | 40.6 µM | > 100 µM | > 100 µM | 17.2 µM | 44.8 µM | 19 µM | 39.3 µM | 13.5 µM | 32.4 µM | 11.2 µM | 41.1 µM | 13.2 µM | 34.2 µM | 13.8 µM | 32.6 µM
10 | COc1ccc2cc(C(=O)/C=C/c3ccc(OC)c(OC)c3)ccc2c1 | 15.5 µM | 80.1 µM | 43.4 µM | > 100 µM |  |  | 21.1 µM | 68.7 µM | 20.2 µM | > 100 µM | 1.43 µM | 7.33 µM | 5.59 µM | 43.4 µM |  | 
11 | N#CC1=C(N)Oc2c(sc3c(F)cccc23)C1c1ccc([N+](=O)[O-])cc1 (stereo not given) | 0.34 µM | 1.38 µM | 0.254 µM | 2.86 µM | 0.194 µM | 0.808 µM | 0.242 µM | 1.3 µM | 0.241 µM | 1.71 µM | 0.0367 µM | 1.54 µM | 0.0272 µM | 0.0848 µM | 0.0589 µM | 0.734 µM
12 | Cc1cc(N2CCN(C)CC2)nc(NC2CCCC(Nc3ccnc4cc(Cl)ccc34)C2)n1 (stereo not given) | 3.05 µM | 12.7 µM | 1.91 µM | 4.6 µM | 2.17 µM | 6.41 µM | 2.08 µM | 5.76 µM | 3.35 µM | 11.4 µM | 1.39 µM | 4.45 µM | 1.8 µM | 3.37 µM | 3.34 µM | 13.3 µM
13 | Nc1cc(C(F)F)c(-c2nc(N3[C@@H]4CC[C@H]3COC4)nc(N3[C@@H]4CC[C@H]3COC4)n2)cn1 | 0.426 µM | > 100 µM | 0.0533 µM | 0.41 µM | 0.18 µM | 0.908 µM | 0.179 µM | 2.77 µM | 0.239 µM | > 100 µM | 0.189 µM | > 100 µM | 0.378 µM | > 30.6 µM | 0.603 µM | 39.5 µM
14 | O=C1OC(c2ccc([N+](=O)[O-])cc2)=N/C1=C\c1ccc(O)cc1 |  | > 100 µM |  | > 100 µM |  | > 100 µM |  | > 100 µM |  | > 100 µM |  | > 100 µM |  | > 100 µM |  | 
15 | COc1cc2cc(C(=O)O)[nH]c2cc1OCc1ccccc1 | > 100 µM | > 100 µM | > 100 µM | > 100 µM | > 100 µM | > 100 µM | > 100 µM | > 100 µM | > 100 µM | > 100 µM | 93.2 µM | > 100 µM | > 100 µM | > 100 µM | > 100 µM | > 100 µM
16 | CCOC(=O)c1cc(C(=O)c2cc(OC)cc(OC)c2)n2ncccc12 | 3.96 µM | > 100 µM | 17.2 µM | > 100 µM | 1.99 µM | > 100 µM | 1.22 µM | > 100 µM | 7.45 µM | > 100 µM | 1.31 µM | > 100 µM |  |  | 0.463 µM | 61.1 µM
